Data as given in patent US8778874B2, “Glycopeptide antibiotic monomer derivatives” (priority 2004, dated 2014).

Tested on: vancomycin-resistant enterococcus (VRE VanA)
Experiment: In vitro assay of antimicrobial activity: MIC by the microdilution method using cation adjusted Mueller-Hinton broth
Type: cell-based
Procedure: In Vitro Assay of Antimicrobial Activity
For several compounds of the invention, minimal inhibitory concentration (MIC) was determined by the microdilution method using cation adjusted Mueller-Hinton broth well known in the art.

[1] = E. faecalis SR7914 (VRE: Van A)

Row | SMILES | minimal inhibitory concentration (MIC) [1] | minimal inhibitory concentration (MIC) (E. faecium SR7917 (VRE: Van A))
1 | CNC(CC(C)C)C(=O)NC1C(=O)N[C@@H](CC(N)=O)C(=O)N[C@H]2C(=O)N[C@H]3C(=O)N[C@H](C(=O)N[C@@H](C(=O)O)c4cc(O)cc(O)c4-c4cc3ccc4O)C(O)c3ccc(c(Cl)c3)Oc3cc2cc(c3OC2OC(CO)[C@H](O)C(O)[C@H]2O[C@@H]2CC(C)(NCc3cccc(NC(=O)c4ccc(C)c(OCc5ccccc5)c4[N+](=O)[O-])c3)[C@@H](O)C(C)O2)Oc2ccc(cc2Cl)[C@H]1O (stereo partly drawn) [Compound 10] | 2 | 2
2 | CNC(CC(C)C)C(=O)NC1C(=O)N[C@@H](CC(N)=O)C(=O)N[C@H]2C(=O)N[C@H]3C(=O)N[C@H](C(=O)N[C@@H](C(=O)O)c4cc(O)cc(O)c4-c4cc3ccc4O)C(O)c3ccc(c(Cl)c3)Oc3cc2cc(c3OC2OC(CO)[C@H](O)C(O)[C@H]2O[C@@H]2CC(C)(NCc3ccc(OCCCNC(=O)c4ccc(C)c(OCc5ccccc5)c4[N+](=O)[O-])cc3)[C@@H](O)C(C)O2)Oc2ccc(cc2Cl)[C@H]1O (stereo partly drawn) [Compound 16] | 4 | 4
3 | CN[C@H](CC(C)C)C(=O)N[C@H]1C(=O)N[C@@H](CC(N)=O)C(=O)N[C@H]2C(=O)N[C@H]3C(=O)N[C@H](C(=O)N[C@H](C(=O)O)c4cc(O)cc(O)c4-c4cc3ccc4O)[C@H](O)c3ccc(c(Cl)c3)Oc3cc2cc(c3O[C@@H]2O[C@H](CO)[C@@H](O)[C@H](O)[C@H]2O[C@H]2C[C@](C)(N)[C@H](O)[C@H](C)O2)Oc2ccc(cc2Cl)[C@H]1O [VCM, vancomycin, reference compound] | >64 | >64
